How the values were obtained:
HL-60 = assay: Cytotoxicity against human HL-60 cells measured after 72 hrs by MTT assay; assay type: functional, cell-based; conditions: HL-60, 72 h
HepG2 = assay: Anticancer activity against human HepG2 cells; assay type: functional, cell-based
Quadruplex DNA [1] = assay: Binding affinity to MYC G4-quadruplex DNA (unknown origin) assessed as dissociation constant; assay type: nucleic-acid assay
4T1 = assay: Anticancer activity against mouse 4T1 cells; assay type: functional, cell-based
[2] = molecular target: Bromodomain-containing protein 4 (Homo sapiens, UniProt O60885); assay: Inhibition of BRD4 (unknown origin)
Homo sapiens [3] = species: Homo sapiens; assay: Binding affinity to human telomeric repeat F21T assessed as change in melting temperature at 1 uM by high-throughput FRET melting assay
Homo sapiens [4] = species: Homo sapiens; assay: Binding affinity to c-MYC promoter G4 sequences FmycT (unknown origin) assessed as change in melting temperature at 1 uM by high-throughput FRET melting assay
Homo sapiens [5] = species: Homo sapiens; assay: Binding affinity to double-stranded DNA FdxT (unknown origin) assessed as change in melting temperature at 1 uM by high-throughput FRET melting assay
Quadruplex DNA [6] = assay: Binding affinity to human MYC G4 DNA sequence; assay type: nucleic-acid assay
Calf thymus DNA = assay: Binding affinity to calf thymus DNA sequence; assay type: nucleic-acid assay, Bos taurus
[7] = In vivo inhibition of BRD4 in human MV4-11 cells xenografted in mouse tumor model; assay type: functional, organism-based
[8] = Growth inhibition of human Burkitts lymphoma cell; assay type: functional, cell-based
[9] = Binding affinity to MYC bHLH Zip (unknown origin) assessed as dissociation constant by microscale thermophoresis assay; parameters: species or system Homo sapiens

O=[N+]([O-])c1ccc(Nc2ccccc2-c2ccccc2)c2nonc12
IC50 (HL-60): 23000 nM

CN1CCN(c2ccc(-c3nc(-c4nc5ccccc5s4)[nH]c3-c3ccc(N4CCN(C)CC4)cc3)cc2)CC1
IC50 (HepG2): 4500 nM
Kd (Quadruplex DNA [1]): 2000 nM
IC50 (4T1): 3900 nM

CCCCOC(=O)CCN1C(=O)S/C(=C\c2ccc(CC)cc2)C1=O
IC50 (HL-60): 5000 nM

Oc1ccc(Cl)c2cccnc12 [CLOXYQUIN]
IC50 [2]: 6470 nM

C[n+]1cc(NC(=O)c2ccc3ccc4ccc(C(=O)Nc5cc6ccccc6[n+](C)c5)nc4c3n2)cc2ccccc21
ΔTm (Homo sapiens [3]): 17.3 °C
ΔTm (Homo sapiens [4]): 12 °C
ΔTm (Homo sapiens [5]): 0 °C

COC(=O)c1ccc(Nc2ccc([N+](=O)[O-])c3nonc23)c(-c2ccc(C)cc2)c1
IC50 (HL-60): 23000 nM

CN(CCc1ccc(Br)cc1)c1ccc2nc3ccc(N(C)CCc4ccc(Br)cc4)cc3[s+]c2c1
Kd (Quadruplex DNA [6]): 70 nM
Kd (Calf thymus DNA): 11000 nM
IC50 (HepG2): 1000 nM

CCn1cc(C(=O)O)c(=O)c2cc(F)c(N3CCNCC3)cc21 [NORFLOXACIN]
IC50 [2]: 980 nM

CN1CCN(c2ccc(-c3nc4cc(F)c(F)cc4nc3-c3ccc(N4CCN(C)CC4)cc3)cc2)CC1
Kd (Quadruplex DNA [1]): 1300 nM
IC50 (4T1): 700 nM

CCS(=O)(=O)Nc1ccc(Oc2ccc(F)cc2F)c(-c2cn(C)c(=O)c3[nH]ccc23)c1 [MIVEBRESIB]
IC50 [2]: 3 nM

Cc1noc2c1-c1ccccc1C(c1ccc(Cl)cc1)=N[C@H]2CC(N)=O [PELABRESIB]
IC50 [7]: 120 nM

O=c1oc2c3c4c(cc2cc1-c1nc2ccccc2s1)CCCN4CCC3
Kd (Quadruplex DNA [1]): 2000 nM

CCOc1ccc2nc3cc(/N=N/c4ccc(N)cc4N)ccc3c(N)c2c1
IC50 [8]: 500 nM
Kd [9]: 2000 nM

c1cc2ccc3ccc4nc3c2nc1CNCCCCCCCNC4
ΔTm (Homo sapiens [3]): 9.2 °C
ΔTm (Homo sapiens [4]): 3.6 °C
ΔTm (Homo sapiens [5]): 9.2 °C

CN(C)c1ccc2nc3ccc(N(C)C)cc3[s+]c2c1 [METHYLENE BLUE ANHYDROUS]
Kd (Quadruplex DNA [6]): 200 nM
Kd (Calf thymus DNA): 200 nM
IC50 (HepG2): 6000 nM

Source: ChEMBL document CHEMBL5233264, “Targeting MYC: From understanding its biology to drug discovery” (Eur J Med Chem, 2021)
